Measurements taken from patent publication US5112820A, “Anti-glaucoma compositions containing 2- and 3-aminomethyl-6-arylcarbonyl- or 6-phenylthio-2,3-dihydropyrrolo-(1,2,3-de)-1,4-benzoxazines and method of use thereof” (Sterling Drug Inc., priority 1990, dated 1992).
Like-named read-outs stand apart in the source and are kept apart here.

Key:
[1] = target: T1, cannabinoid receptor (CP 55940 binding sites) (Rattus norvegicus, UniProt P20272); assay: CP55940 binding assay (CP)
T1 construct: from tissue; host or cells: rat brain membranes (inferred from the cited Devane et al. 1988)

[2] = smoking (marijuana, man); topical application or systemic injection (delta-9 tetrahydrocannabinol; cited studies in man and rabbit); cited from earlier work
[3] = system: mouse vas deferens; assay: mouse vas deferens adrenergic transmission test (MVD); type: cell-based; details: for IC50: inhibition of contractions in the MVD preparation in vitro, active at IC50 of 5.0 μM or less; for inhibition at 10 µM: read-out: MVD percent inhibition at a given dose level
From the text: Med. Assoc. 217, 1392 (1971)]. […] Opth. 7, 921-923 (1975); Green and Pederson, Effect of delta-9 Tetrahydrocannabinol on Aqueous Dynamics and Ciliary Body Permeability in the Rabbit Eye., Exptl. Eye Research 15, 499-507 (1973); Colasanti, Craig and Allara, Intraocular Pressure, Ocular Toxicity and Neurotoxicity after Administration of Cannabinol or Cannabigerol, Exptl. Eye Research 39, 252-259 (1984)]. Similarly, synthetic cannabinoids also reduce intraocular pressure [Green, Symunds, Oliver and Elijah, Intraocular Pressure Following Systemic Administration of Cannabinoids., Curr. […] Cannabinoid receptor binding sites can be defined as those to which radio-labelled 4-(1,1-dimethyl-heptyl)-2,3'-dihydroxy-6'alpha-(3-hydroxypropyl)-1',2',3',4',-5',6'-hexahydrobiphenyl (CP 55940) binds in a specific and saturable manner and the binding sites are heterogeneously distributed in the brain [Devane, Dysarz, Johnson, Melvin and Howlett, Determination and Characterization of a Cannabinoid Receptor in Rat Brain, Molecular Pharm 34, 605-613 (1988)]. Natural and synthetic cannabinoids and representative examples of the compounds of the present invention bind to CP 55940 binding sites. […] It is believed that agonist activity at the cannabinoid receptor mediates the anti-glaucoma actions of cannabinoids, and that agonist activity at this receptor correlates with ocular pressure lowering actions in man.
The compounds are identified by the Example or the Preparation number above where their preparations are described.

T1 sequence (P20272 whole entry): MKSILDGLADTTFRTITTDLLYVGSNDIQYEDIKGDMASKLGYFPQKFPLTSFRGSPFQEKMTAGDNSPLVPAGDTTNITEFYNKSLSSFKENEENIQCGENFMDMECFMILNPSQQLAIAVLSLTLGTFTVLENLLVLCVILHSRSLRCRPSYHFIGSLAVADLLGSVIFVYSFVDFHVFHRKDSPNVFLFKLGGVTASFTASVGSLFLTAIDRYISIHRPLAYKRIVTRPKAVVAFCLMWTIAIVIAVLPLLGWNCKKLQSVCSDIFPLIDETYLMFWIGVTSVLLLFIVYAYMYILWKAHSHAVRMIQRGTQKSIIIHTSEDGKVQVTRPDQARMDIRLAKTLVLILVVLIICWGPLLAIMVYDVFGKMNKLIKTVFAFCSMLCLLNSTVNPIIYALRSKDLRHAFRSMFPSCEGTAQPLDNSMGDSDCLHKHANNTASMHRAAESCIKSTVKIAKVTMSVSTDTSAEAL

Question: With `Cc1c(C(=O)c2cccc3ccccc23)c2cccc3c2n1CC(CN1CCOCC1)O3` (centres unmarked) [Ex. 2I, 2-(4-morpholinylmethyl)-5-methyl-6-(1-naphthylcarbonyl)2,3-dihydropyrrolo[1,2,3-de]-1,4-benzoxazine] as the molecule, how does the IC50 ([1]; CP IC50, CP55940 binding) read?
Answer: ~10 nM

Question: For `CCCCCc1cc(O)c2c(c1)OC(C)(C)[C@@H]1CCC(C)=C[C@@H]21` [delta-9 tetrahydrocannabinol], which “effect on intraocular pressure” value [2] is on record?
Answer: reduces intraocular pressure

Question: For `Cc1c(Sc2ccccc2)c2cccc3c2n1C(CN1CCOCC1)CO3` (single isomer, unassigned; (+)) [Prep. 4B (d)], which IC50 [3] is on record?
Answer: 70 nM

Question: Which inhibition at 10 µM ([3]; Mus musculus) does the source give for `COc1ccc(C(=O)c2c(C)n3c4c(cccc24)OCC3CN2CCOCC2)cc1` (single isomer, unassigned; (-)) [Ex. 2H (1)] here?
Answer: 44%

Question: For `CCc1c(C(=O)c2ccc(OC)cc2)c2cccc3c2n1C(CN1CCOCC1)CO3` (centres unmarked) [Ex. 2A], which inhibition at 10 µM ([3]; Mus musculus) is on record?
Answer: 27%

Question: For `Cc1c(C(=O)c2cccc3c(Br)cc(Br)cc23)c2cccc3c2n1C(CN1CCOCC1)CO3` (single isomer, unassigned; (-)) [Ex. 1E, (-)-3-(4-morpholinylmethyl)-5-methyl-6-(5,7-dibromonaphthylcarbonyl)-2,3-dihydropyrrolo[1,2,3-de]-1,4-benzoxazine methanesulfonate], which IC50 ([3]; methanesulfonate) is on record?
Answer: 2620 ± 1700 nM

Question: With `COc1ccc(C(=O)c2c(C)n3c4c(cccc24)OCC3CN2CCOCC2)cc1` (single isomer, unassigned; (+)) [Ex. 2H (d)] as the molecule, how does the IC50 ([1]; CP55940 binding, read-out: CP IC50) read?
Answer: 199 nM

Question: For `Cc1c(Sc2ccccc2)c2cccc3c2n1C(CN1CCOCC1)CO3` (centres unmarked) [Prep. 4A (d,1)], which IC50 ([3]; Mus musculus) is on record?
Answer: > 10000 nM

Question: With `Cc1c(C(=O)c2cccc3ccccc23)c2cccc3c2n1C(CN1CCOCC1)CO3` (single isomer, unassigned; (-)) [Ex. 2B (1), (-)-3-(4-morpholinylmethyl)-5-methyl-6-(1-naphthylcarbonyl)-2,3-dihydropyrrolo[1,2,3-de]-1,4-benzoxazine methanesulfonate] as the molecule, how does the inhibition at 10 µM ([3]; Mus musculus) read?
Answer: 37%

Question: With `Cc1c(Sc2ccccc2)c2cccc3c2n1C(CN1CCOCC1)CO3` (single isomer, unassigned; (-)) [Prep. 4B (1)] as the molecule, how does the IC50 [3] read?
Answer: 690 nM

Question: Which IC50 ([3]; methanesulfonate) does the source give for `Cc1c(C(=O)c2cccc3ccccc23)c2cccc3c2n1C(CN1CCOCC1)CO3` (single isomer, unassigned; (+)) [Ex. 2B (d), (+)-3-(4-morpholinylmethyl)-5-methyl-6-(1-naphthylcarbonyl)-2,3-dihydropyrrolo[1,2,3-de]-1,4-benzoxazine methanesulfonate] here?
Answer: 43 ± 0.1 nM
